What was measured:
[1] = target: T1, UGT1A4 (Homo sapiens, UniProt P22310); assay: Inhibition by aprepitant of UGT1A4; format: in vitro ADME; conditions: UGT1A4 enzyme, probe imipramine
T1 sequence (P22310 29-534): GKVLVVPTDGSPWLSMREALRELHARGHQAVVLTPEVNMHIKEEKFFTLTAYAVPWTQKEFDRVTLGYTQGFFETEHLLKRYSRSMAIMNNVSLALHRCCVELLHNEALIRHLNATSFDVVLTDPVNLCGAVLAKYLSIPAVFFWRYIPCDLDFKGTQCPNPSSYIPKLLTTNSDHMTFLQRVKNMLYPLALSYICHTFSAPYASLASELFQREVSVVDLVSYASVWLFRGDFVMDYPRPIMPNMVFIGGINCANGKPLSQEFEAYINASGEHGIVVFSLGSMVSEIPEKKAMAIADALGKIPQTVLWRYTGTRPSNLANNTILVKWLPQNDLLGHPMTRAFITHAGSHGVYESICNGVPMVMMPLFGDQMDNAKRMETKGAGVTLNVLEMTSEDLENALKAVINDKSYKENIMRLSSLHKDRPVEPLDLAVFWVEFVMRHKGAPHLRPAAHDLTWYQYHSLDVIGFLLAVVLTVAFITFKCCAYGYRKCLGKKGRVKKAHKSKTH

[2] = target: T2, UGT1A9 (Homo sapiens, UniProt O60656); assay: Screening for aprepitant glucuronidation, UGT1A9 Supersomes; format: in vitro ADME; conditions: UGT1A9, 5 and 250 µM aprepitant
T2 sequence (O60656 26-530): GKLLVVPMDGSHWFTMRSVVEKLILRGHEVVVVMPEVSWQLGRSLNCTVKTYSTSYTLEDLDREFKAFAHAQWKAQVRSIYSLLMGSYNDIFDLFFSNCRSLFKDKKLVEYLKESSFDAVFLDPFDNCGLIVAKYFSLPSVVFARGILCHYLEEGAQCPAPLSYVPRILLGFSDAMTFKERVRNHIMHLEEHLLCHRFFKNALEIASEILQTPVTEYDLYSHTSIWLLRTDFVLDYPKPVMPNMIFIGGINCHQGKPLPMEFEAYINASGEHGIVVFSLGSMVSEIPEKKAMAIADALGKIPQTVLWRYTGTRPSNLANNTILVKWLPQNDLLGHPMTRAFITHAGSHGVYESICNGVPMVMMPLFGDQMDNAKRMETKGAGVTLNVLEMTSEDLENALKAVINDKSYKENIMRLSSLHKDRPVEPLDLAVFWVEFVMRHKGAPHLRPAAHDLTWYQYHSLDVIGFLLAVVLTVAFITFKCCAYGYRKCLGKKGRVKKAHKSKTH

[3] = Calculated concentration of drug in the lumen of the gut; design: species or system human; conditions: molar dose/250 mL
[4] = target: T3, UGT2B17 (Homo sapiens, UniProt O75795); assay: Inhibition by aprepitant of UGT2B17; format: in vitro ADME; conditions: UGT2B17 enzyme, pH 7.5, probe 4-MU
T3 sequence (O75795 24-530): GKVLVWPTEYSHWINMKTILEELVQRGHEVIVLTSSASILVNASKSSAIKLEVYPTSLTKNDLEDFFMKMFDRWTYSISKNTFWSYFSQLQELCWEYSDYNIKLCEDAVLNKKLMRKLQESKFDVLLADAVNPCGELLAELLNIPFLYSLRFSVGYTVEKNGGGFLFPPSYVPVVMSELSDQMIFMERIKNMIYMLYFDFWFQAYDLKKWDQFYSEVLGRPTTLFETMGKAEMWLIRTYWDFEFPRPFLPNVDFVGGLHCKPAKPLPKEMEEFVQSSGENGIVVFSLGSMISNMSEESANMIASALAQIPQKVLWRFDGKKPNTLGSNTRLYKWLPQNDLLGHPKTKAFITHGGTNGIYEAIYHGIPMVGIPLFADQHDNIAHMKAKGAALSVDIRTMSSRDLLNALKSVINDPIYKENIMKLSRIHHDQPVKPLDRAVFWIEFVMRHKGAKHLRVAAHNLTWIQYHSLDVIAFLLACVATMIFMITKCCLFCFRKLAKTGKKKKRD

[5] = target: T4, UGT1A6 (Homo sapiens, UniProt P19224); assay: Inhibition by aprepitant of UGT1A6; format: in vitro ADME; conditions: UGT1A6 enzyme, pH 7.5, probe 4-MU
T4 sequence (P19224 27-532): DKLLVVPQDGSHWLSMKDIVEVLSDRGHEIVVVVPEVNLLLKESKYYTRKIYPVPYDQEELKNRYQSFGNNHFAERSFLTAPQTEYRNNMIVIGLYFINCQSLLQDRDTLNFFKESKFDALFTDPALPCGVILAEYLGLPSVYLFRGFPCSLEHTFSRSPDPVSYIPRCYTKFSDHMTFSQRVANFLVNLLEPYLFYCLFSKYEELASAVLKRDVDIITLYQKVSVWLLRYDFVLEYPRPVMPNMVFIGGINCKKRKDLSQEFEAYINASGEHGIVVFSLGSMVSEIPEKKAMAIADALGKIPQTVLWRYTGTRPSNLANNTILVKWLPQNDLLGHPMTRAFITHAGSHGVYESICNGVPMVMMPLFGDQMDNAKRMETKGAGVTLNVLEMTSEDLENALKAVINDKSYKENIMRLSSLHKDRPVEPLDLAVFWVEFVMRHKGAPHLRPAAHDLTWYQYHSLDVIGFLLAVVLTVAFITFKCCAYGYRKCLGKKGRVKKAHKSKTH

[6] = tested on: human intestinal microsomes (HIM)
[7] = target: T5, UGT1A8 (Homo sapiens, UniProt Q9HAW9)
T5 sequence (Q9HAW9 26-530): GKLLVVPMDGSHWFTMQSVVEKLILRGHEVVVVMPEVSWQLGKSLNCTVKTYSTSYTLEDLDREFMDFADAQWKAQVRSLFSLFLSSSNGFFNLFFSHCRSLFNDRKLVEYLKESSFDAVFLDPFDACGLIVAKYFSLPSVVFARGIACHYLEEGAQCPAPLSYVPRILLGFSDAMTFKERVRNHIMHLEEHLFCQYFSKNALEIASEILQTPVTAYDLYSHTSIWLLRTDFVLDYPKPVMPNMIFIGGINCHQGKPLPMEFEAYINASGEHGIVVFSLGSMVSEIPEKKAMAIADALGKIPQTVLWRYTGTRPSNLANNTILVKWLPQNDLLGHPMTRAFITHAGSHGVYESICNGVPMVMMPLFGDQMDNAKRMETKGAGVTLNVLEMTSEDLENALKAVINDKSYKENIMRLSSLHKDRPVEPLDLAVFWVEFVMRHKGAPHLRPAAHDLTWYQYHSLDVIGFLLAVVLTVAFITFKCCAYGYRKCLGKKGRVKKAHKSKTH

- inhibition at 60 min, 10 µM [1]: 18%
- AP-G formation [2]: not detected
- luminal concentration (Igut) ([3]; 40 mg oral capsule): 300 µM
- luminal concentration (Igut) ([3]; 125 mg oral capsule): 936 µM
- inhibition at 10 µM [4]: 10%
- inhibition at 10 µM [5]: 19%
- velocity of AP-G formation ([6]; human, 60 min, 250 µM, pH 7.5): 278.3 ± 1.9 fmol/min/mg protein
- Vmax ([7]; UGT1A8, mean ± SE): 683 ± 69 fmol/min/mg protein
- n (Hill coefficient) ([7]; UGT1A8, mean ± SE): 1.2 ± 0.1
- velocity of AP-G formation ([7]; human, 60 min, 250 µM, pH 7.5): 391 ± 10.6 fmol/min/mg protein
- CLint ([7]; human, recombinant enzyme, pH 7.5): 3.5 µl/min/µg protein
Structure (SMILES): C[C@@H](O[C@H]1OCCN(Cc2n[nH]c(=O)[nH]2)[C@H]1c1ccc(F)cc1)c1cc(C(F)(F)F)cc(C(F)(F)F)c1 [aprepitant, Aprepitant]
- Vmax ([6]; HIM, mean ± SE): 352 ± 8 fmol/min/mg protein
